Calls of active or inactive are those of the source.
Columns and labels:
Cytochrome P450 2C19 = Cytochrome P450 2C19 (Homo sapiens, UniProt P33261); test: Inhibition of recombinant human CYP2C19 at 10 uM using 3-cyano-7-ethoxycoumarin as substrate incubated for 5 mins followed by substrate addition by fluorescence based assay; assay type: ADME; conditions: recombinant enzyme
MDCK [1] = test: Cytotoxicity against dog MDCK cells assessed as effect on cell morphology at 100 uM incubated for 3 to 5 days by microscopic analysis; assay type: cell-based, Canis lupus familiaris
Mus musculus [2] = test: Antineuroinflammatory activity in mouse model of 5xFAD assessed as effect on Hmox1 expression at 5 mg/kg, po administered for 4 weeks by qRT-PCR analysis; assay type: functional, organism-based
Mus musculus [3] = test: Antineuroinflammatory activity in mouse model of 5xFAD assessed as reduction in H2O2 level at 5 mg/kg, po administered for 4 weeks; assay type: functional, organism-based
[4] = molecular target: Voltage-gated inwardly rectifying potassium channel KCNH2 (Homo sapiens, UniProt Q12809); test: Inhibition of recombinant human ERG expressed in CHO cells by patch clamp assay; assay type: cell-based
Nischarin = Nischarin (Homo sapiens, UniProt Q9Y2I1); test: Displacement of [3H]clonidine from I1IR in human brain frontal cortex in presence of adrenaline incubated for 45 mins by liquid scintillation spectrometry; assay type: tissue-based
Mus musculus [5] = test: Antineuroinflammatory activity in mouse model of 5xFAD assessed as reduction in sAPPbeta expression at 5 mg/kg, po administered for 4 weeks by Western blot analysis; assay type: functional, organism-based
Vero = test: Cytotoxicity against monkey Vero cells assessed as reduction in cell viability at 100 uM incubated for 3 to 5 days by colorimetric analysis; assay type: cell-based; conditions: chlorocebus sabaeus
Mus musculus [6] = test: Cognitive enhancing effect in mouse model of 5xFAD assessed as increase in recognition memory at 5 mg/kg, po administered for 28 days and measured after 2 hrs of last dosage by novel object recognition test; assay type: functional, organism-based
Cytochrome P450 2C9 = Cytochrome P450 2C9 (Homo sapiens, UniProt P11712); test: Inhibition of recombinant human CYP2C9 at 10 uM using 7-methoxy-4-(trifluoromethyl)coumarin as substrate incubated for 5 mins followed by substrate addition by fluorescence based assay; assay type: ADME; conditions: recombinant enzyme
Mus musculus [7] = test: Effect on FADD in CD-1 mouse at 20 mg/kg, ip measured after 1 hr by Westernblot analysis; assay type: functional
MDCK [8] = test: Cytotoxicity against dog MDCK cells assessed as reduction in cell viability at 100 uM incubated for 3 to 5 days by colorimetric analysis; assay type: cell-based, Canis lupus familiaris
Cytochrome P450 3A4 = Cytochrome P450 3A4 (Homo sapiens, UniProt P08684); test: Inhibition of recombinant human CYP3A4 at 10 uM using 7-benzyloxytrifluoromethyl coumarin (7-BFC) and Dibenzylfluorescein as substrate incubated for 5 mins followed by substrate addition by fluorescence based assay; assay type: ADME; conditions: recombinant enzyme
Mus musculus [9] = test: Antineuroinflammatory activity in mouse model of 5xFAD assessed as reduction in Cxcl10 expression at 5 mg/kg, po administered for 4 weeks by qRT-PCR analysis; assay type: functional, organism-based

Sequence of Nischarin (Q9Y2I1 whole entry): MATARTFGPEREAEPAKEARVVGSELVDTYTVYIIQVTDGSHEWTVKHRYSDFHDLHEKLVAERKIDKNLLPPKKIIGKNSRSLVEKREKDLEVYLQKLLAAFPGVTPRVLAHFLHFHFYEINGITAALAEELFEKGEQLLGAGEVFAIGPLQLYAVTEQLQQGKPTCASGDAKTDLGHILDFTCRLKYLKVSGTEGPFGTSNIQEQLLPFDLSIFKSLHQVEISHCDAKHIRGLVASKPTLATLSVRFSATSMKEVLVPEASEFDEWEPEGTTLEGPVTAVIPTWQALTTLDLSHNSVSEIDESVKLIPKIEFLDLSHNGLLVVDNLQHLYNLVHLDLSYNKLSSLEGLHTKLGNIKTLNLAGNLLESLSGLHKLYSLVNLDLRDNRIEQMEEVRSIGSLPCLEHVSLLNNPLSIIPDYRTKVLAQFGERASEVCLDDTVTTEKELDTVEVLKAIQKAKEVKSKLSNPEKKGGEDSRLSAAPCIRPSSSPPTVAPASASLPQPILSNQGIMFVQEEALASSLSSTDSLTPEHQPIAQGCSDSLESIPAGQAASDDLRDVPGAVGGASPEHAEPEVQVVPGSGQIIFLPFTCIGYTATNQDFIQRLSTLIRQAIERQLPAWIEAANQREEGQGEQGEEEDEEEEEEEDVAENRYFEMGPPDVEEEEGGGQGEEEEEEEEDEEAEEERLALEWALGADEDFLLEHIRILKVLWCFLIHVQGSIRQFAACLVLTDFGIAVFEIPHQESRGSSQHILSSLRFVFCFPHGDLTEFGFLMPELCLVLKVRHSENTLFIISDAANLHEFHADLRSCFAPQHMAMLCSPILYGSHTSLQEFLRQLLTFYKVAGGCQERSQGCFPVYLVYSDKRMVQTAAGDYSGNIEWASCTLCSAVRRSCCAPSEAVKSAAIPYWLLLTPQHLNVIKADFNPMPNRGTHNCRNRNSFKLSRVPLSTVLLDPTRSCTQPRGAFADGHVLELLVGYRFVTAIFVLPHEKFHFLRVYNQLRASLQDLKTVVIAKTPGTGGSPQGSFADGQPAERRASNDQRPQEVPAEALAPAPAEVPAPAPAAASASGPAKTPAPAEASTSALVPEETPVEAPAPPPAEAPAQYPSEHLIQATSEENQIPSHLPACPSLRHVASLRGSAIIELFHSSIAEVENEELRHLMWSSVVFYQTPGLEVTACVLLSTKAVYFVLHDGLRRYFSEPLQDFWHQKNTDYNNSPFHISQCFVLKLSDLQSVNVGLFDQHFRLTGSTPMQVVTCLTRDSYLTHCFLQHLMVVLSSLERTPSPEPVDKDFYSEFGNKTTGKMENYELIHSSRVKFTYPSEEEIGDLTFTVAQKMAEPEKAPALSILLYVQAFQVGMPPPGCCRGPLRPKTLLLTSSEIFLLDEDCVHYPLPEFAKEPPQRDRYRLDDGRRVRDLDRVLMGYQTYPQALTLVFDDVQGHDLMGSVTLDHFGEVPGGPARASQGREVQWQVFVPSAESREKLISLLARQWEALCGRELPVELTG
Sequence of Cytochrome P450 2C9 (P11712 whole entry): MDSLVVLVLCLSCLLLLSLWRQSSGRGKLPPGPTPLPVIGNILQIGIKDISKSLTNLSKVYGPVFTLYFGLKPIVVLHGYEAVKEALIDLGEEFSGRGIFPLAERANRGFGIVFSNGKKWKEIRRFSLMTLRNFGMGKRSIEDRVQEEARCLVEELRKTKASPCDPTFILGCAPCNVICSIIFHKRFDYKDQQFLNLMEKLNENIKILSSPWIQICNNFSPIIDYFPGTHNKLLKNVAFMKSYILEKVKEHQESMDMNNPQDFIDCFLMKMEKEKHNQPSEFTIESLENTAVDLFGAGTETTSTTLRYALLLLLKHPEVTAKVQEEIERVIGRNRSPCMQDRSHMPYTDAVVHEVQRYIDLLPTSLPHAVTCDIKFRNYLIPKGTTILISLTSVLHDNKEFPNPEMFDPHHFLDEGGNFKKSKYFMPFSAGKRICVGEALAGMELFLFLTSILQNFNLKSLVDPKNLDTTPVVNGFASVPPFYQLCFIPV
Sequence of Voltage-gated inwardly rectifying potassium channel KCNH2 (Q12809 whole entry): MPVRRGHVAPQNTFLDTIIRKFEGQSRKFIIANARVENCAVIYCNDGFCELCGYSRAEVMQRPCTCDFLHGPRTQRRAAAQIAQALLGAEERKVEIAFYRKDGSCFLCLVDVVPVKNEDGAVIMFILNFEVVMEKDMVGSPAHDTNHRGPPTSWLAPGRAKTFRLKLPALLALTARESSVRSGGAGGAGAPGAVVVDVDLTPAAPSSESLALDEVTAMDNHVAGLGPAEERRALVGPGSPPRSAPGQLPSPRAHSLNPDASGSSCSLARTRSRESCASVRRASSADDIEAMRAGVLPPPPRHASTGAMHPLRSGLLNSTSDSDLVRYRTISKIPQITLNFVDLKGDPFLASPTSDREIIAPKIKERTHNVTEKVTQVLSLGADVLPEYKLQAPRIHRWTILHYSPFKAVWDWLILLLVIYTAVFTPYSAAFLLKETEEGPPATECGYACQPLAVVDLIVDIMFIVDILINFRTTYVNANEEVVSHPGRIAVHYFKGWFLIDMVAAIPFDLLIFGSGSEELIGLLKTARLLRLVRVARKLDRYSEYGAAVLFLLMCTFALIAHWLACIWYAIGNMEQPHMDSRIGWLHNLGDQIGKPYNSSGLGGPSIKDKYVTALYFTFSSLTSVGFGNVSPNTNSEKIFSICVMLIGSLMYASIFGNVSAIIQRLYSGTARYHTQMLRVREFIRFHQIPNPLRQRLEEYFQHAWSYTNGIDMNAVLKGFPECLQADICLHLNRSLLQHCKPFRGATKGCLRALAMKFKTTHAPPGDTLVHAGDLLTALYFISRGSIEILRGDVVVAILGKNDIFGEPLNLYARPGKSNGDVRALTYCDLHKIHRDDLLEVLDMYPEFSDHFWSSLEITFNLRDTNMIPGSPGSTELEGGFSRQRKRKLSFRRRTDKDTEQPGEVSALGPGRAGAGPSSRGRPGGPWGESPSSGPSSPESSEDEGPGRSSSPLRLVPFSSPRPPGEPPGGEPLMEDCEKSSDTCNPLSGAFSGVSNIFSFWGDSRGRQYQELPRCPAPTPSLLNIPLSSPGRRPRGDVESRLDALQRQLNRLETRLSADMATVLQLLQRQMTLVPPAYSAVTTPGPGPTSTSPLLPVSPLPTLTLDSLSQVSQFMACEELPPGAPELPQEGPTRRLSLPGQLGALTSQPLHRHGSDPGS
Sequence of Cytochrome P450 3A4 (P08684 whole entry): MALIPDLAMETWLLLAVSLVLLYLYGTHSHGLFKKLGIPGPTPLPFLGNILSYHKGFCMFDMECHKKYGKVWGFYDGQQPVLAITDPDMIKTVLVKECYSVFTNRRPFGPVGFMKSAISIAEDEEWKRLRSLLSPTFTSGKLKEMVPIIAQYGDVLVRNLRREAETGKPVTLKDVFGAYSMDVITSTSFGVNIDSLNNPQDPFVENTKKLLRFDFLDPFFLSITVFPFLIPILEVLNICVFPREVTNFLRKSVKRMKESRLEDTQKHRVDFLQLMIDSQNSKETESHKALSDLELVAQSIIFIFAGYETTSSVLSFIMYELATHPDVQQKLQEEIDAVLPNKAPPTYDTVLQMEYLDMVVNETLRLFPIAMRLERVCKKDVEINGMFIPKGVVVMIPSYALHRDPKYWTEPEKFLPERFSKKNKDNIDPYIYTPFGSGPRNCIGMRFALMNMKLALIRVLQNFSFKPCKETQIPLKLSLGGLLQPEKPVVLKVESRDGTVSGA
Sequence of Cytochrome P450 2C19 (P33261 whole entry): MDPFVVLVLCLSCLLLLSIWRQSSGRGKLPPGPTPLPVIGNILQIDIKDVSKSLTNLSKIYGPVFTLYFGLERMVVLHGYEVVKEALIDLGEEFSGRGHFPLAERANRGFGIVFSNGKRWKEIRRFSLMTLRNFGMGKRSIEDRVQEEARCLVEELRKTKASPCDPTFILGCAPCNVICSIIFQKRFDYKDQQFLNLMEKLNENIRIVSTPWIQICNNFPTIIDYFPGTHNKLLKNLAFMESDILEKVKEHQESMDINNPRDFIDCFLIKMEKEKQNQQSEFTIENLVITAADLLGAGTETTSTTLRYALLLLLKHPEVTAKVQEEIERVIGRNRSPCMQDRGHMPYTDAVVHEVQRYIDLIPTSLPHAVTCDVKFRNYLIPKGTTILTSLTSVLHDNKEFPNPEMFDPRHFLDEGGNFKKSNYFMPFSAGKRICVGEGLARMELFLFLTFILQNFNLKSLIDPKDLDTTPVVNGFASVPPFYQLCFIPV

CCOP(=O)(OCC)C1(c2ccccc2)N=CC2C(=O)N(c3ccc(F)c(Cl)c3)C(=O)C21 (racemic)
Not Active: inhibition (INH) (Cytochrome P450 2C19) | inhibition (INH) [4] | inhibition (INH) (Cytochrome P450 2C9) | inhibition (INH) (Cytochrome P450 3A4)
active: Activity (Mus musculus [2]) | Activity (Mus musculus [3]) | Activity (Mus musculus [5]) | Activity (Mus musculus [6]) | Activity (Mus musculus [9])
912 µM: IC50 (Nischarin) | Ki (Nischarin)
-30%: Activity (Mus musculus [7])
Non-Toxic: Activity (MDCK [1]) | Activity (Vero) | Activity (MDCK [8])

From ChEMBL document CHEMBL4354864, “Bicyclic α-Iminophosphonates as High Affinity Imidazoline I2 Receptor Ligands for Alzheimer's Disease” (J Med Chem, 2020)
